Data reported in publication PMC11124870, “Effect of Antioxidants in Medicinal Products on Intestinal Drug Transporters” (Pharmaceutics, 2024).
“Also recorded” adds a separate entry of the source. Like-named read-outs stand apart in the source and are kept apart here.

What was measured:
[1] = tested on: MDCK cell tight junctions; assay: Lucifer yellow permeability assay of MDCK monolayer integrity; assay type: cell-based; conditions: BHA 250 µM
Procedure: The transport assay was performed using MDCK-hMDR1-cMDR1-KO, MDCK-cMDR1-KO, and MDCK-hBCRP-cMDR1-KO as reported previously with minor modifications [14, 27]. In brief, 133,000 cells were seeded onto a Transwell membrane insert, a semipermeable polyethylene terephthalate membrane. During the differentiation process, the medium volume in the apical chamber was kept at 300 μL, while the basal chamber contained 1000 μL. The cells were allowed to differentiate for 7–9 days at 37 °C in a humidified incubator with 5% CO2. Before starting transporter assays, the integrity of the cell monolayer was checked using lucifer yellow permeability assays. Cells were washed twice with HBSS, lucifer yellow (0.1 mg/mL) in HBSS was added to the apical chamber, and the basal chamber was filled with fresh HBSS. The assembled plate was then incubated at 37 °C for 1 h. From the basal chamber, 100 μL samples were collected for fluorescence measurements using GloMax® Explorer with a 475 nm excitation filter and a 500–550 nm emission filter to calculate the percent permeability per well.
At the end of the transport assay, a lucifer yellow permeability assay was performed as described earlier.

[2] = Estimation of intestinal luminal concentration (Igut), dose/250 mL; conditions: estimated from maximum oral amount (AP 10 mg, BHA 8 mg) in 250 mL intestinal fluid
Procedure: Igut is intestinal luminal concentration estimated as dose/250 mL. The Igut concentration was estimated using the following equation: Igut=A÷MW×V×10^6 where Igut is the estimated intestinal luminal concentration (µM), A is the amount of antioxidant in an oral dosage (mg), MW is the molecular weight, and V is the volume of intestinal fluid, i.e., 250 mL.

P-gp (human MDR1) = P-gp (human MDR1) (Homo sapiens, UniProt P08183); assay: Transwell transport assay, basal-to-apical digoxin flux in MDCK-hMDR1-cMDR1-KO cells; conditions: 3H-digoxin 2.5 µM, 4 h
Sequence of P-gp (human MDR1) (P08183 whole entry): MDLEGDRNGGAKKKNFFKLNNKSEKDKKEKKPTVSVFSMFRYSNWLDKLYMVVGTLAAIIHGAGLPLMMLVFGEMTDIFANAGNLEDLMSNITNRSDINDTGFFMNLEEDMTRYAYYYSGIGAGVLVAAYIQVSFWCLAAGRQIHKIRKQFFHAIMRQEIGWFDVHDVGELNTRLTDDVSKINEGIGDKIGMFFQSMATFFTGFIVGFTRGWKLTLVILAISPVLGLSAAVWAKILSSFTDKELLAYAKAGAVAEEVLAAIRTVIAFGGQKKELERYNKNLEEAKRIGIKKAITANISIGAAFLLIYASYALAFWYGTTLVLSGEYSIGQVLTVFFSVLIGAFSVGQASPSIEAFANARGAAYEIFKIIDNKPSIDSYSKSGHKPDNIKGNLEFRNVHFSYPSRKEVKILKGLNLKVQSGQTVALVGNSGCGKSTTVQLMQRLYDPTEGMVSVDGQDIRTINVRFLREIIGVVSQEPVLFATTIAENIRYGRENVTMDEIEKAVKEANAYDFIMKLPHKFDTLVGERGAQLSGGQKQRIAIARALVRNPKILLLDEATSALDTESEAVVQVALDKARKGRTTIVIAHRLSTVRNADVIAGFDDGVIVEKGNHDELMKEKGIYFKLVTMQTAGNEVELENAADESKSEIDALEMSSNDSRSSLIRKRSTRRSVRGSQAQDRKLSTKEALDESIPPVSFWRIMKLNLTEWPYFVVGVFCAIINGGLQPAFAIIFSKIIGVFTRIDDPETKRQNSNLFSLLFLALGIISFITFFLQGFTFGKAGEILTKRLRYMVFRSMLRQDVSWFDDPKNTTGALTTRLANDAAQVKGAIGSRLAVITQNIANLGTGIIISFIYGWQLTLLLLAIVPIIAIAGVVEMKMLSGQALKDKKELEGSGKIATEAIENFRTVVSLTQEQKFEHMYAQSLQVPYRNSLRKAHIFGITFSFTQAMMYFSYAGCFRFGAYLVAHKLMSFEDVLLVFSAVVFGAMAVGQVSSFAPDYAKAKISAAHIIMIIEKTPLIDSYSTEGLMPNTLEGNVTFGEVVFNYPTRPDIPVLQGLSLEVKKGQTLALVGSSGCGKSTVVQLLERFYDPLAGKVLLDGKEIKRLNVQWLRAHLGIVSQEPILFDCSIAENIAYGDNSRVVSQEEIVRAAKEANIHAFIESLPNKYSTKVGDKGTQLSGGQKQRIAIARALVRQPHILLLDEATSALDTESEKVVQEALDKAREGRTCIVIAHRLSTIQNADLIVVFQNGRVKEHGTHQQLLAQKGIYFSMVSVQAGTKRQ
Procedure: The transport assay was performed using MDCK-hMDR1-cMDR1-KO, MDCK-cMDR1-KO, and MDCK-hBCRP-cMDR1-KO as reported previously with minor modifications. In brief, 133,000 cells were seeded onto a Transwell membrane insert, a semipermeable polyethylene terephthalate membrane. During the differentiation process, the medium volume in the apical chamber was kept at 300 μL, while the basal chamber contained 1000 μL. The cells were allowed to differentiate for 7–9 days at 37 °C in a humidified incubator with 5% CO2. Before starting transporter assays, the integrity of the cell monolayer was checked using lucifer yellow permeability assays. […] From the basal chamber, 100 μL samples were collected for fluorescence measurements using GloMax® Explorer with a 475 nm excitation filter and a 500–550 nm emission filter to calculate the percent permeability per well.
To assess the flux of digoxin or prazosin from the basal to apical side, the cells were washed twice with HBSS. […] All apical and basal samples were mixed with scintillation fluid (EcoLite(+)™ liquid scintillation cocktail), and their radioactivity was measured using liquid scintillation counting (Beckman LS6500). […] For data analysis, the disintegration per minute counts of digoxin or prazosin from the apical samples were converted to picomoles using radioactivity measured in the substrate solution.

OATP2B1 = target: T1, OATP2B1 (Homo sapiens, UniProt O94956); assay: Uptake transporter assay, 3H-estrone sulfate uptake in HEK-293-OATP2B1 cells; conditions: for IC50: mean ± SD of three independent experiments
T1 sequence (O94956 1-709): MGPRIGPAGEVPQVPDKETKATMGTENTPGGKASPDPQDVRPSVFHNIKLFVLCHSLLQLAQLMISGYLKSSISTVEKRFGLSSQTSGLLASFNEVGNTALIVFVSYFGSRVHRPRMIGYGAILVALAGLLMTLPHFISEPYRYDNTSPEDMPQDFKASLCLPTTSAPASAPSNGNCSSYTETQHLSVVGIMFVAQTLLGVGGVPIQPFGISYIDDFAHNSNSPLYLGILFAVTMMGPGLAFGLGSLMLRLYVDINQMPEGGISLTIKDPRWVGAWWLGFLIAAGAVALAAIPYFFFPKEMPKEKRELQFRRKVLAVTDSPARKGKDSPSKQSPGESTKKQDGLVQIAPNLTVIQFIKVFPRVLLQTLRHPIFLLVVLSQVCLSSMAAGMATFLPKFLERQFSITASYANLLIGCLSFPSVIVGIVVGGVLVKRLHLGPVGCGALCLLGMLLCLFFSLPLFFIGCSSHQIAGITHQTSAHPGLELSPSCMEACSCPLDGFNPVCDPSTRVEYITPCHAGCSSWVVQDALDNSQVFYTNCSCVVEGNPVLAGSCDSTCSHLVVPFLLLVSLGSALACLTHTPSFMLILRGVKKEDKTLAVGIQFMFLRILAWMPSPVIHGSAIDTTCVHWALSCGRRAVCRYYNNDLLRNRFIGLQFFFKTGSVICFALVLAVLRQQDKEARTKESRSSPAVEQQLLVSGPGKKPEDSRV
Procedure: The uptake transporter assay was performed as reported previously with minor modifications [15]. A day before the uptake assay, Isoplate 96-well plates were coated with poly-D-lysine in PBS with calcium and magnesium and washed with PBS. […] An assay mixture of ^3H-estrone sulfate, a known inhibitor of OATP2B1, or an antioxidant was prepared and incubated in a 37 °C incubator for 10 min. The cells were washed with ice-cold HBSS three times and incubated with MicroScint fluid on a shaker for 1 h for cell lysis. Radioactivity was measured by liquid scintillation counting with a MicroBeta^2® microplate counter. […] On the day of experiment, cells were washed twice with 0.4 mL of HBSS per well and then pre-incubated for 10–20 min in 0.4 mL of HBSS. […] Uptake of ^3H-valsartan was stopped after 15 min by washing three times with ice-cold HBSS. Cells were lysed in 750 µL of lysis buffer (0.1 N NaOH and 0.1% SDS in double-distilled water) per well while shaking for 60 min. A total of 690 µL of the lysate from each well was then added to 2.5 mL of EcoLite scintillation fluid. The radioactivity was determined on a LS6500 Scintillation Counter (Beckman Coulter). Protein concentration was measured with a Pierce™ BCA protein assay kit. The radioactivity in each well was corrected for protein concentration. All values were determined in triplicate, and the final values are expressed as % uptake relative to negative control (1% DMSO).
Antioxidants were screened at a concentration of 200 μM.

P-gp = target: T2, P-gp (Homo sapiens, UniProt P08183); assay: Vesicular transport assay, 3H-NMQ uptake in P-gp membrane vesicles; assay type: biochemical
T2 construct: purchased ThermoFisher Scientific GM0015; host or cells: Sf9 membrane vesicles
T2 sequence (P08183 whole entry): as the sequence (P08183 whole entry) above
Procedure: The vesicular transport assay was performed using Spodoptera frugiperda 9 (Sf9) membrane vesicles overexpressing human P-gp or BCRP, as reported previously with minor modifications. In brief, Isoplate 96-well flat-bottom white plates were preincubated with HBSS containing 0.5 mg/mL BSA on an orbital shaker in a 37 °C incubator at 90 rpm for 60 min followed by washing with HBSS. The assay mixture (75 µL/well) contained a probe substrate and either vehicle control, a known inhibitor of P-gp or BCRP, or an antioxidant, in vesicle uptake buffer (50 mM MOPS-Tris, pH 7.0 + 70 mM KCl + 7.5 mM MgCl2) prewarmed to 37 °C. After addition of the assay mixture, 5 μL/well (5 μg/μL stock concentration of the vesicles) of vesicles overexpressing human P-gp or BCRP was added. Uptake assays were initiated by adding 20 μL of either 25 mM adenosine triphosphate (ATP) or 25 mM adenosine monophosphate (AMP) to a final concentration of 5 mM. Plates were incubated at 37 °C for 20 min with orbital shaking (90 rpm). After 20 min, the uptake was quenched by adding 150 μL of ice-cold wash buffer (40 mM MOPS-Tris, pH 7.0 + 70 mM KCl) to each well, and the mixture was transferred to a 96-well filtration plate. Vacuum was applied, and the vesicles were washed three times with wash buffer. Vesicles were then lysed with 100 µL of MicroScint-20.

SMILES: COc1ccc(O)cc1C(C)(C)C [Butylated hydroxyanisole (BHA), 2-tert-Butyl-4-hydroxyanisole]
- Effect on MDCK cell tight junctions (lucifer yellow permeability) [1]: disrupted MDCK cell tight junctions
- Max Intestinal Conc (µM) in 250 mL Fluid [2]: 178 µM
- Inhibition of digoxin transport (basal to apical) (P-gp (human MDR1); BHA 62.5 µM on both sides): Neither the estimated maximal intestinal concentration of 178 µM nor a lower concentration (62.5 µM) inhibited digoxin transport
- Inhibition of digoxin transport (basal to apical) (P-gp (human MDR1); BHA 178 µM on both sides): Neither the estimated maximal intestinal concentration of 178 µM nor a lower concentration (62.5 µM) inhibited digoxin transport; also recorded: did not impede digoxin transport
- Inhibition of OATP2B1 (OATP2B1; 200 µM, 3H-estrone sulfate): at least 50%
- Effect of 30 min pre-incubation on inhibition potency (OATP2B1; OATP2B1-expressing cells pre-incubated for 30 min): did not further affect their inhibition potency
- % Uptake of 3H-ES OATP2B1 (OATP2B1; antioxidant 200 µM, uptake with DMSO set as 100%, mean ± SD, three replicates, HEK-293-OATP2B1 cells): 19.8 ± 7.1%
- IC50 (OATP2B1; read-out: IC50 OATP2B1, substrate 3H-estrone sulfate): 71 ± 20 µM
- IC50 (OATP2B1; read-out: IC50 with preincubation, OATP2B1 expressing cells pre-incubated 30 minutes): 67 ± 12.8 µM
- IC50 (OATP2B1; read-out: IC50 without preincubation, OATP2B1 expressing cells): 76.9 ± 15.9 µM
- Inhibition of P-gp (P-gp; 200 µM, 3H-NMQ): at least 50%
- % Uptake of 3H-NMQ P-gp (P-gp; antioxidant 200 µM, uptake with DMSO set as 100%, mean ± SD, three replicates, membrane vesicles): 42.1 ± 5.7%
- IC50 (P-gp; substrate 3H-NMQ, mean ± SD of three independent experiments): 182 ± 49 µM
